{"source": "BindingDB's records for patent US12194050", "about": "(Richter Gedeon, 2025)", "molecular_target": "Neuronal acetylcholine receptor subunit alpha-7 (Homo sapiens, UniProt P36544)", "sequence (P36544 whole entry)": "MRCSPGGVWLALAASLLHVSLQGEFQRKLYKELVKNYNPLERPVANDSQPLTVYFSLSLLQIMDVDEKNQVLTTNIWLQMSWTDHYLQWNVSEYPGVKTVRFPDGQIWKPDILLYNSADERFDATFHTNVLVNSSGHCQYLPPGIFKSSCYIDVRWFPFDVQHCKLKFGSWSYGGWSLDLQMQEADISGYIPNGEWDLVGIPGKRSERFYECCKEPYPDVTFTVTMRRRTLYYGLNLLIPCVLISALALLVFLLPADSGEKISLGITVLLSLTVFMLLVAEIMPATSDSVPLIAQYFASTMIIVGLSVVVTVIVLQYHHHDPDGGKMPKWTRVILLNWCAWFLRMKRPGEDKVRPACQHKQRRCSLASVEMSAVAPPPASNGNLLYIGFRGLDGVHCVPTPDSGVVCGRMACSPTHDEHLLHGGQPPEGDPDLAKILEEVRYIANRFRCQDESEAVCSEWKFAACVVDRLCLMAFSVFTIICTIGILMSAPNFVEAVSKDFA", "test": "Ca2+ Fluorometry", "experimental": "α7 cells stably expressing human α7 nAchR were cultured in the medium detailed above, and were split twice a week. For the fluorometric measurements of cytosolic Ca2+ ion concentration ([Ca2+]i) cells were seeded in 96-well microplates at a density of 60000 cells/well and maintained overnight in a tissue culture incubator at 37° C. under an atmosphere of 95% air/5% CO2. The plating medium was identical with the culture medium. 50 μl of the growth medium was aspirated with a cell washer (BioTek Elx405UCVWS). Then 50 μl/well Calcium 5 kit diluted 2-fold in assay buffer was added manually using an 8-channel pipette. […] Baseline and agonist-evoked [Ca2+]i-changes were monitored with FlexStation II (Molecular Devices, Sunnyvale, Calif.), a plate reader fluorometer with integrated 8-channel fluid addition capability. Fluorescence measurements were carried out at 37° C. […] Baseline was recorded for 20 seconds followed by agonist stimulation. 50 μl 4× concentrated agonist solution was added to the cells using the pipettor of FlexStation II and fluorescence was monitored for an additional 40 seconds. […] In all experiments, all treatments were measured in multiple wells in parallel, and the mean ΔF/F values were used for analysis.", "data": [{"smiles": "CCN1C(C(=O)Nc2cccc(C(F)(F)F)n2)=CC([C@H]2CC[C@H](C(F)(F)F)CC2)=NS1(=O)=O", "note": "[US12194050, Example 53]", "values": [{"measurement": "EC50", "value": 90, "unit": "nM"}]}]}
